Measurements taken from patent US5698535A, “SIN-1A cyclodextrin inclusion complexes” (priority 1994, dated 1997).
Read-outs that look alike come from different tables or passages of the source. One block for each molecule: values may come before it.

Assays:
[1] = prior art; cited from earlier work
[2] = system: rabbit platelet rich plasma; assay: Inhibition of U-46619 induced platelet aggregation in rabbit platelet rich plasma; assay type: cell-based
Procedure: (§1) The platelet aggregation was studied in rabbit and human platelet rich plasma (J. Cardiovasc. Pharmacol. 14 suppl. 11; page 120, 1989). In each batch of platelet rich rabbit plasma 8 dose response curves were registered with the thromboxane mimetic U-46619 (0.25-4.0 μM) in the presence of 0, 10^-7, 10^-6 or 10^-5 moles of SIN-1A/βCD complex. The dose response curves were performed in random sequence.

[3] = system: human platelet rich plasma; assay: Inhibition of U46619 induced platelet aggregation in human citrate platelet rich plasma; assay type: cell-based
Procedure: as §1
Both amplitude and slope of the aggregation curve were evaluated.

[4] = known; SIN-1 in solid state, SIN-1A open-chain tautomer; cited from earlier work

Compound: CCN(CC)N(O)N=O [DEANO, diethylamine-nitric oxide adduct]
half-life [1]: about 2 minutes

IC50 ([2]; Oryctolagus cuniculus, rabbit platelet rich plasma, U46619 4 μM, n=7, read-out: pD2 (negative logarithm of concentration producing 50% inhibition) (converted)): 2.69 µM | IC50 ([3]; Table 4, amplitude of aggregation curve, read-out: pD2, 50% inhibition of aggregation, amplitude (converted)): 15.8 µM | IC50 ([3]; Table 4, slope of aggregation curve, read-out: pD2, 50% inhibition of aggregation, slope (converted)): 14.1 µM
Compound: N=c1c[n+](N2CCOCC2)[n-]o1 [SIN-1, 3-morpholino-sydnonimine]

Compound: N#CCN(N=O)N1CCOCC1 [SIN-1A, N-morpholino-N-nitrosoaminoacetonitrile]
stability [4]: extremely unstable

Compound: NCCCNCCCCN(CCCN)N(O)N=O [SPNO]
half-life [1]: 39 min

Compound: CCCCCC(O)/C=C/C1C2CC(CO2)C1C/C=C\CCCC(=O)O (stereo not shown) [U46619]
induction of platelet aggregation ([2]; thromboxane mimetic): concentration-related aggregation
